{"source": "patent US20250041309A1", "about": "(ZHENAO JINYINHUA PHARMACEUTICAL, priority 2021, published 2025)", "assay_type_in_all_cases": "in vivo, SD rats", "key": {"[1]": {"test": "Weight monitoring of MCAO rats, oral administration (Example 21)", "conditions": "gavage 4 mg/kg twice per day; for Weight D 0: D 0, group mean; for Weight D 4: D 4, group mean; for Weight D 7: D 7, group mean; for Weight D 11: D 11, group mean; for Weight D 14: D 14, group mean; for Weight D 18: D 18, group mean; for Weight D 21: D 21, group mean; for Weight D 25: D 25, group mean; for Weight D 28: D 28, group mean", "experimental": "Administration route: gavage administration; Dosage: 4 mg/kg body weight, twice per day; Administration time: gavage administration twice in the morning and evening per day (administered immediately after modeling). A rat model of middle cerebral artery ischemia/reperfusion (MCAO/R) was created using the suture method. […] After surgical exposure of the carotid artery, suture was performed without ischemia-reperfusion injury; • (3) Treatment group 1: MCAO model+[…] citrate drug treatment group; • (4) Treatment group 2: MCAO model+Sildenafil citrate drug treatment group; […]"}, "[2]": {"test_system": "MCAO rats", "test": "Neurological deficits (mNSS) score in MCAO rats, oral administration (Example 21)", "parameters": "scale not given here", "conditions": "gavage 4 mg/kg twice per day, one value per rat (30 per group)", "experimental": "(§1) Administration route: gavage administration;\nDosage: 4 mg/kg body weight, twice per day;\nAdministration time: gavage administration twice in the morning and evening per day (administered immediately after modeling).\nA rat model of middle cerebral artery ischemia/reperfusion (MCAO/R) was created using the suture method.\nScores were evaluated using the mNSS rat neurological deficit scoring method. The neurological deficits of the experimental rats were evaluated on 14 days after modeling. • ?"}, "[3]": {"test_system": "MCAO rats", "test": "Morris water maze experiment in MCAO rats, oral administration (Example 21)", "conditions": "gavage 4 mg/kg twice per day, 14 days water maze test", "experimental": "Morris water maze experiment: testing the learning and memory abilities of rats.\nThe Morris water maze experiment is conducted continuously for 6 days each time, with training conducted for the first 5 days and testing conducted on 6th day.\nFor each of the tests, the rats were trained four times a day at a fixed time period for the first five days (once in the first, second, third, and fourth quadrants respectively). At the beginning of the training, a platform was placed in the first quadrant, and from any starting points of the four quadrants on the pool wall, the rats were placed into the pool, facing the pool wall. The camera system records the time when the rats found the platform and their swimming path. Four training sessions involved placing rats into water from four different starting points. If the rat finds the platform or cannot find it within 60 seconds, the experimenter will guide it to the platform, rest on the platform for 10 seconds, and then proceed to the next experiment.\nThe rats were removed from the platform, dried with a soft cloth, and put back into the cage. Afterwards, the next experiment on the rat was performed until the numbered animals had finished swimming, and then the next set of experiments was conducted.\nThis experiment was conducted on the 14th day after administration. […]"}, "[4]": {"test_system": "MCAO rats", "test": "Neurological function (behavioral) score in MCAO rats, oral administration (Example 23)", "conditions": "gavage 8 mg/kg twice a day; after 3, 7 and 14 days administration", "experimental": "as §1\n(§2) Dosage: 8 mg/kg body weight, twice a day;\n(§3) Administration time: gavage administration twice a day in the morning and evening (administered immediately after modeling).\n(§4) A rat model of middle cerebral artery ischemia/reperfusion (MCAO/R) was created using suture-occluded method.\nAfter 2 hours of embolization, then reperfusion, according to the scoring criteria in the attached table, the degree of neurological damage in the animals was scored using a blind method. Those with significant neurological deficits (>8 points) were considered successful in modeling.\n(§5) The successfully modeled rats were randomly divided into 4 groups based on their scores, with an average of 20 rats in each group.\nNeurological function score: evaluation was conducted before treatment, 3 days, 7 days, and 14 days after treatment."}, "[5]": {"test_system": "MCAO rats", "test": "Cerebral infarction range (TTC) in MCAO rats, oral administration (Example 23)", "conditions": "gavage 8 mg/kg*2, after 14 days", "experimental": "as §1, §2, §3, §4, §5\nAt the end of the experiment, the brain tissue of the rats was collected by bloodletting and frozen in a −20° C. freezer, and then is sliced into a thickness of 2 mm per slice. The brain tissue slices were placed in a 2% red tetrazolium (TTC) solution and incubated at 37° C. for 5 minutes. The infarcted tissue appeared white, while the non-infarcted tissue appeared red. Image J software was used to measure the area of cerebral infarction and the percentage of infarct area to the total brain area was calculated."}, "[6]": {"test_system": "ischemic stroke model rats", "test": "Neurological function (behavioral) score, ischemic stroke model rats, intravenous administration (Example 22)", "parameters": "scale not given here", "conditions": "10 mg/kg iv qd 7 d, x ± s, n = 10", "from_the_text": "(§6) On the day of the experiment, the rat was anesthetized with isoflurane gas and placed in a supine position for fixation. The skin was cut along the midline of the neck to expose the right common carotid artery. The nerves and fascia around the blood vessels from the common carotid artery bifurcation to the base of the skull were carefully removed, and the external and internal carotid arteries were separated sequentially. The MCAO suture was inserted from the free end of the external carotid artery, and the nylon suture was introduced into the internal carotid artery from the distal end of the external carotid artery. It was inserted into the Willis ring of the middle cerebral artery to effectively block the middle cerebral artery. The length of the inserted suture was 18-20 mm away from the bifurcation of the common carotid artery. Then the free end of the external carotid artery was ligated along with the endovascular suture to prevent bleeding. […] Animals were kept in cages. After 2 hours of embolization, then reperfusion, according to the scoring criteria in the attached table, the degree of neurological damage in the animals was scored using a blind method. Those with significant neurological deficits (>8 points) were considered successful in modeling. • ? Grouping and administration The animals successfully modeled were randomly divided into three groups based on their scores, namely the model control group, compound 1 AD group ([…] citrate group) 10 mg/kg, and compound 2 XD group (Sildenafil citrate group) 10 mg/kg, with 10 animals in each group. […] The endpoint of the experiment was 14 days after administration, and the dosage is detailed in the table below. This experiment was administered intravenously with a dosage of 10 mg/kg and a volume of 5 mL/kg, once per day for consecutive 7 days. Score before treatment, 3 days after treatment, 7 days after treatment, and 14 days after treatment."}, "[7]": {"test_system": "ischemic stroke model rats", "test": "Cerebral infarction range (TTC), ischemic stroke model rats, intravenous administration (Example 22)", "conditions": "10 mg/kg iv qd 7 d", "from_the_text": "as §6, with “cages.” for “cages. After 2 hours of embolization, then reperfusion, according to the scoring criteria in the attached table, the degree of neurological damage in the animals was scored using a blind method. Those with significant neurological deficits (>8 points) were considered successful in modeling. • ? Grouping and administration”, “At the end of the experiment, the brain tissue of the rats was collected by bloodletting” for “Score before treatment, 3 days after treatment, 7 days after treatment,”, “frozen in a -20° C. freezer, then are sliced with a thickness of 2 mm per slice. The brain tissue slices were placed in a 2% red tetrazolium (TTC) solution and incubated at 37° C. for 5 minutes. The infarcted tissue appeared white, while the non-infarcted tissue appeared red.” for “14 days after treatment.”"}}, "note": "Values joined by “and” are separate entries in the source; they are usually repeats but may differ in a detail not shown here. Equal entries are not always repeated. Structures can show the parent of a compound that is named as a salt.", "data": [{"smiles": "CCCc1nn(C)c2c(=O)[nH]c(-c3cc(S(=O)(=O)N4C[C@@H](C)N[C@@H](C)C4)ccc3OCC)nc12", "note": "[Aildenafil, 1-[3-(6,7-dihydro-1-methyl-7-oxy-3-n-propyl-1H-pyrazolo[4,3-d]pyrimidin-5-yl)-4-ethoxybenzenesulfonyl]-3,5-dimethylpiperazine]", "values": [{"measurement": "Weight D 0", "setting": "[1]", "value": 303.9, "unit": "g"}, {"measurement": "Weight D 4", "setting": "[1]", "value": 251.4, "unit": "g"}, {"measurement": "Weight D 7", "setting": "[1]", "value": 253.8, "unit": "g"}, {"measurement": "Weight D 11", "setting": "[1]", "value": 274.1, "unit": "g"}, {"measurement": "Weight D 14", "setting": "[1]", "value": 287.2, "unit": "g"}, {"measurement": "Weight D 18", "setting": "[1]", "value": 312.0, "unit": "g"}, {"measurement": "Weight D 21", "setting": "[1]", "value": 321.3, "unit": "g"}, {"measurement": "Weight D 25", "setting": "[1]", "value": 341.9, "unit": "g"}, {"measurement": "Weight D 28", "setting": "[1]", "value": 345.0, "unit": "g"}, {"measurement": "Score for neurological deficits (mNSS) after 14 days of administration, individual rats", "setting": "[2]", "value": "7 (7×) and 5 (3×) and 6 (7×) and 8 (6×) and 9 (4×) and 10 (2×)"}, {"measurement": "average latency period, Morris water maze", "setting": "[3]", "value": 8.93, "unit": "s"}, {"measurement": "behavioral scores compared with the model control group", "setting": "[4]", "value": "significant improvement"}, {"measurement": "Improvement rate % of cerebral infarction range", "setting": "[5]; versus model control group", "value": 31.5, "unit": "%"}, {"measurement": "Total cerebral infarction %", "setting": "[5]; x ± s, n = 20", "value": "17.0 ± 6.7", "unit": "%"}]}, {"smiles": "CCCc1nn(C)c2c(=O)[nH]c(-c3cc(S(=O)(=O)N4CCN(C)CC4)ccc3OCC)nc12", "note": "[Sildenafil citrate]", "values": [{"measurement": "Weight D 0", "setting": "[1]", "value": 297.7, "unit": "g"}, {"measurement": "Weight D 4", "setting": "[1]", "value": 251.4, "unit": "g"}, {"measurement": "Weight D 7", "setting": "[1]", "value": 249.0, "unit": "g"}, {"measurement": "Weight D 11", "setting": "[1]", "value": 266.9, "unit": "g"}, {"measurement": "Weight D 14", "setting": "[1]", "value": 282.4, "unit": "g"}, {"measurement": "Weight D 18", "setting": "[1]", "value": 307.6, "unit": "g"}, {"measurement": "Weight D 21", "setting": "[1]", "value": 318.3, "unit": "g"}, {"measurement": "Weight D 25", "setting": "[1]", "value": 339.6, "unit": "g"}, {"measurement": "Weight D 28", "setting": "[1]", "value": 345.9, "unit": "g"}, {"measurement": "Score for neurological deficits (mNSS) after 14 days of administration, individual rats", "setting": "[2]", "value": "8 (10×) and 9 (8×) and 7 (7×) and 10 (3×) and 5 and 6"}, {"measurement": "average latency period, Morris water maze", "setting": "[3]", "value": 16.88, "unit": "s"}, {"measurement": "behavioral score, 3 days after medication", "setting": "[6]; 3 days after medication", "value": "7.4 ± 1.4"}, {"measurement": "behavioral score, 7 days after medication", "setting": "[6]; 7 days after medication", "value": "6.1 ± 1.7"}, {"measurement": "behavioral score, 14 days after medication", "setting": "[6]; 14 days after medication", "value": "4.9 ± 1.7"}, {"measurement": "behavioral score, Before medication", "setting": "[6]; before medication", "value": "9.6 ± 0.5"}, {"measurement": "Total cerebral infarction %", "setting": "[7]; 14 days after administration, x ± s, n = 10", "value": "21.5 ± 8.6", "unit": "%"}, {"measurement": "Improvement rate % of cerebral infarction range", "setting": "[7]; 14 days, versus model control group", "value": 14.0, "unit": "%"}]}]}
